The values below come from patent US8853246B2 (Dow AgroSciences LLC, priority 2009, dated 2014).

Where two headings read alike, the source gives them in different places. A value given as a limit tells only on which side of the number the result lay.

Assay [1] concerns Green Peach Aphid (Myzus Persicae). The experiment in a line: Insecticidal test for green peach aphid in foliar spray assay (col. MYZUPE). Conditions: for pest or weed control at 200 ppm: Myzus persicae, 72 h, read-out: MYZUPE 200 ppm (Corrected % Control, rating). The format is in vivo. Here is the method:
(§1) The compounds were tested against cotton aphid, green peach aphid, and sweet potato whitefly using procedures described in the following examples and reported in Table 2.
(§2) In each case of Table 2, the rating scale is as follows at 200 ppm.
Insecticidal Test for Green Peach Aphid (Myzus Persicae) in Foliar Spray Assay
Cabbage seedlings grown in 3-inch pots, with 2-3 small (3-5 cm) true leaves, were used as test substrate. The seedlings were infested with 20-50 green peach aphids (wingless adult and nymph) one day prior to chemical application. Four pots with individual seedlings were used for each treatment. Compounds (2 mg) were dissolved in 2 mL of acetone/methanol (1:1) solvent, forming stock solutions of 1000 ppm. The stock solutions were diluted 5× with 0.025% Tween 20 in H2O to obtain a test solution at 200 ppm. A hand-held Devilbiss sprayer was used for spraying a solution to both sides of cabbage leaves until runoff. Reference plants (solvent check) were sprayed with the diluent only. Treated plants were held in a holding room for three days at approximately 25° C. and 40% relative humidity (RH) prior to grading. Evaluation was conducted by counting the number of live aphids per plant under a microscope. Corrected % Control=100*(X−Y)/X • where X=No. of live aphids on solvent check plants • Y=No. of live aphids on treated plants

In assay [2] the test system is Sweetpotato Whitefly-Crawler (Bemisia Tabaci). Put plainly: Insecticidal test for sweetpotato whitefly-crawler in foliar spray assay (col. BEMITA). The format is in vivo. The conditions noted are these: for pest or weed control at 200 ppm: Bemisia tabaci, read-out: BEMITA 200 ppm (Corrected % Control, rating). The procedure:
as §1, §2
Insecticidal Test for Sweetpotato Whitefly-Crawler (Bemisia Tabaci) in Foliar Spray Assay
Cotton plants grown in 3-inch pots, with 1 small (3-5 cm) true leaf, were used as test substrate. The plants were placed in a room with whitefly adults. Adults were allowed to deposit eggs for 2-3 days. After a 2-3 day egg-laying period, plants were taken from the adult whitefly room. Adults were blown off leaves using a hand-held Devilbiss sprayer (23 psi). Plants with egg infestation (100-300 eggs per plant) were placed in a holding room for 5-6 days at 82° F. and 50% RH for egg hatch and crawler stage to develop. Four cotton plants were used for each treatment. Compounds (2 mg) were dissolved in 1 mL of acetone solvent, forming stock solutions of 2000 ppm. The stock solutions were diluted 10× with 0.025% Tween 20 in H2O to obtain a test solution at 200 ppm. A hand-held Devilbiss sprayer was used for spraying a solution to both sides of cotton leaf until runoff. Reference plants (solvent check) were sprayed with the diluent only. Treated plants were held in a holding room for 8-9 days at approximately 82° F. and 50% RH prior to grading. Evaluation was conducted by counting the number of live nymphs per plant under a microscope. Insecticidal activity was measured by using Abbott's correction formula and presented in Table 2 (see col. “BEMITA”): Corrected % Control=100*(X−Y)/X • where X=No. of live nymphs on solvent check plants • Y=No. of live nymphs on treated plants Pesticidally Acceptable Acid Addition Salts, Salt Derivatives, Solvates, Ester Derivatives, Polymorphs, Isotopes and Radionuclides

Regarding `CN(C(=O)CC[S+](C)[O-])c1sc(-c2cccnc2)nc1Br` (stereo not drawn) [Compound 506], the pest or weed control at 200 ppm in assay [1] (Abbott's correction formula) was 80 to 100%; in assay [2] (Abbott's correction formula), less than 80%.
In the case of `Cc1nc(-c2cncc(F)c2)sc1N(C)C(=O)C(C)CS(C)(=O)=NC#N` (stereo not drawn) [Compound 168], the pest or weed control at 200 ppm in assay [1] (green peach aphid) and in assay [2] (sweetpotato whitefly-crawler) was 80 to 100% in each case.
For `CN(C(=O)C1=CC(=O)CC(C)(C)O1)c1sc(-c2cccnc2)nc1Cl` [Compound 328], the pest or weed control at 200 ppm in assay [1] (green peach aphid) and in assay [2] (sweetpotato whitefly-crawler) was less than 80% throughout.
On to `Cc1nc(-c2cccnc2)sc1N(C)C(=O)C(C)C[S+](C)[O-]` (stereo not drawn) [Compound 87], for which the pest or weed control at 200 ppm in assay [1] (green peach aphid) and in assay [2] (sweetpotato whitefly-crawler) was 80 to 100% in each case.
For the compound `CC(C(=O)N(C)CC(=O)N(C)c1sc(-c2cccnc2)nc1Cl)n1cccn1` (stereo not drawn) [Compound 431], the pest or weed control at 200 ppm in assay [1] (Abbott's correction formula) is 80 to 100%; in assay [2] (Abbott's correction formula) it was less than 80%.
For `CN(C(=O)C1CC[S+]([O-])C1)c1sc(-c2cccnc2)nc1Cl` (stereo not drawn) [Compound 523], the pest or weed control at 200 ppm in assay [1] (Abbott's correction formula) is 80 to 100%; in assay [2] (Abbott's correction formula) it was less than 80%.
Take `Cc1nc(-c2cccnc2)sc1N(CC1CC1(F)F)C(=O)OC(C)(C)C` (stereo not drawn) [Compound 461]: the pest or weed control at 200 ppm was 80 to 100% in assay [1] (Abbott's correction formula) and less than 80% in assay [2] (Abbott's correction formula).
Consider `Cc1nc(-c2cccnc2)sc1NC(=O)OC1(C)CCCCC1` [Compound 198], for which the pest or weed control at 200 ppm in assay [1] (green peach aphid) and in assay [2] (sweetpotato whitefly-crawler) was 80 to 100% in each case.
On to `CCN(C(=O)CC(C)[S+](C)[O-])c1sc(-c2cccnc2)nc1Cl` (stereo not drawn) [Compound 524], for which the pest or weed control at 200 ppm in assay [1] (Abbott's correction formula) and in assay [2] (Abbott's correction formula) was 80 to 100% throughout.
As to `CSCCC(=O)N(C)c1sc(-c2cccnc2)nc1C(C)C` [Compound 59], the pest or weed control at 200 ppm in assay [1] (green peach aphid) was less than 80%; in assay [2] (sweetpotato whitefly-crawler), 80 to 100%.
On to `CSCC(C)C(=O)N(C)c1sc(-c2cncc(F)c2)nc1C` (stereo not drawn) [Compound 40], for which the pest or weed control at 200 ppm in assay [1] (green peach aphid) and in assay [2] (sweetpotato whitefly-crawler) was 80 to 100% in each case.
With `CC(CC(=O)N(C)c1sc(-c2cccnc2)nc1Cl)[S+](C)[O-]` (stereo not drawn) [Compound 520], the pest or weed control at 200 ppm is 80 to 100% in assay [1] (Abbott's correction formula) and less than 80% in assay [2] (Abbott's correction formula).
On to `CCN(C(=O)c1ccc(CSC)o1)c1sc(-c2cccnc2)nc1Cl` [Compound 545], for which the pest or weed control at 200 ppm in assay [1] (Abbott's correction formula) is 80 to 100%; in assay [2] (Abbott's correction formula), less than 80%.
Take `CCN(C(=O)C(C)C)c1sc(-c2cncc(F)c2)nc1Cl` [Compound 275]: the pest or weed control at 200 ppm in assay [1] (green peach aphid) and in assay [2] (sweetpotato whitefly-crawler) was 80 to 100% throughout.
For the compound `C[S+]([O-])CCC(=O)Nc1sc(-c2cncc(F)c2)nc1Cl` (stereo not drawn) [Compound 451], in assay [1] (Abbott's correction formula), the “MYZUPE 200 ppm (Corrected % Control, rating)” value is given as “A (80-100)”. In addition, in assay [2] (Abbott's correction formula), the “BEMITA 200 ppm (Corrected % Control, rating)” value is “B (Less than 80)”.
For `CSCCCC(=O)N(C)c1sc(-c2cccnc2)nc1Cl` [Compound 371], the pest or weed control at 200 ppm in assay [1] (green peach aphid) and in assay [2] (sweetpotato whitefly-crawler) was 80 to 100% each time.
`CC(=O)OC(C)C(=O)N(C)c1sc(-c2cccnc2)nc1Cl` (stereo not drawn) [Compound 336]: the “MYZUPE 200 ppm (Corrected % Control, rating)” value in assay [1] (green peach aphid) is recorded as “A (80-100)”. Besides, the “BEMITA 200 ppm (Corrected % Control, rating)” value in assay [2] (sweetpotato whitefly-crawler) was “A (80-100)”.
Turning to `CSC(C)C(C)C(=O)N(C)c1sc(-c2cncc(F)c2)nc1C` (stereo not drawn) [Compound 215], the pest or weed control at 200 ppm in assay [1] (green peach aphid) and in assay [2] (sweetpotato whitefly-crawler) was 80 to 100% throughout.
`CCc1nc(-c2cccnc2)sc1N(C)C(=O)C(F)(F)F` [Compound 3, N-(4-Ethyl-2-pyridin-3-yl-thiazol-5-yl)-2,2,2-trifluoro-N-methyl-acetamide]: the pest or weed control at 200 ppm in assay [1] (green peach aphid) and in assay [2] (sweetpotato whitefly-crawler) was less than 80% throughout.
As for `CSCC(C)C(=O)N(C(=O)OC(C)(C)C)c1sc(-c2cccnc2F)nc1C` (stereo not drawn) [Compound 154], the pest or weed control at 200 ppm in assay [1] (green peach aphid) and in assay [2] (sweetpotato whitefly-crawler) was less than 80% throughout.
With `CN(C(=O)C1(C)CC1)c1sc(-c2cccnc2)nc1Cl` [Compound 566], the pest or weed control at 200 ppm in assay [1] (Abbott's correction formula) and in assay [2] (Abbott's correction formula) was 80 to 100% throughout.
